{"source": "ChEMBL document CHEMBL3044966", "about": "“Photosynthesis limitations of grapevine after treatment with the fungicide fludioxonil” (J Agric Food Chem, 2008)", "key": {"Vitis vinifera [1]": {"test_system": "Vitis vinifera", "experiment": "Inhibition of photosynthesis in Vitis vinifera cv. Pinot noir assessed as in vivo maximum rate of rubisco carboxylation at 6 mM measured 7 days post compound application (reference value: 42.8 +/- 3.2 umol/m2/s)", "assay_type": "organism-based", "settings": "168 h, 6000 µM"}, "Vitis vinifera [2]": {"test_system": "Vitis vinifera", "experiment": "Inhibition of photosynthesis in Vitis vinifera cv. Pinot noir assessed as mitochondrial respiration in the light at 30 mM measured 7 days post compound application (reference value: 3.2 +/- 0.5 umol/m2/s)", "assay_type": "organism-based", "settings": "in vivo, 168 h, 30000 µM"}, "Vitis vinifera [3]": {"test_system": "Vitis vinifera", "experiment": "Inhibition of photosynthesis in Vitis vinifera cv. Pinot noir assessed as light compensation point at 6 mM measured 7 days post compound application (reference value: 22.6 +/- 3.1 umol/mol)", "assay_type": "organism-based", "settings": "in vivo, 168 h, 6000 µM"}, "Vitis vinifera [4]": {"test_system": "Vitis vinifera", "experiment": "Inhibition of photosynthesis in Vitis vinifera cv. Pinot noir assessed as mitochondrial respiration in the light at 6 mM measured 7 days post compound application (reference value: 3.2 +/- 0.5 umol/m2/s)", "assay_type": "organism-based", "settings": "in vivo, 168 h, 6000 µM"}, "Vitis vinifera [5]": {"test_system": "Vitis vinifera", "experiment": "Inhibition of photosynthesis in Vitis vinifera cv. Pinot noir assessed as light compensation point at 1.2 mM measured 7 days post compound application (reference value: 22.6 +/- 3.1 umol/mol)", "assay_type": "organism-based", "settings": "in vivo, 168 h, 1200 µM"}, "Vitis vinifera [6]": {"test_system": "Vitis vinifera", "experiment": "Inhibition of photosynthesis in Vitis vinifera cv. Pinot noir assessed as ratio of apparent quantum yield of photo system 2 to apparent quantum yield yield of CO2 fixation at 6 mM measured 7 days post compound application (reference value: 10 +/- 1.7 no unit)", "assay_type": "organism-based", "settings": "in vivo, 168 h, 6000 µM"}, "Vitis vinifera [7]": {"test_system": "Vitis vinifera", "experiment": "Effect on stomatal conductance in Vitis vinifera cv. Pinot noir at 1.2 to 30 mM measured 7 days post compound application", "assay_type": "ADME, organism-based", "settings": "in vivo, 168 h, 30000 µM"}, "photosystem 2 [8]": {"test_system": "photosystem 2", "experiment": "Inhibition of photosynthesis in Vitis vinifera cv. Pinot noir assessed as reduction in relative quantum yield of photo system 2 at 6 mM measured 7 days post compound application relative to untreated control", "assay_type": "organism-based", "settings": "in vivo"}, "[9]": {"experiment": "Inhibition of photosynthesis in Vitis vinifera cv. Pinot noir assessed as reduction in net photosynthetic rate at 6 mM measured 7 days post compound application", "assay_type": "organism-based", "settings": "in vivo"}, "Vitis vinifera [10]": {"test_system": "Vitis vinifera", "experiment": "Inhibition of photosynthesis in Vitis vinifera cv. Pinot noir assessed as CO2 compensation point at 1.2 mM measured 7 days post compound application (reference value: 74.8 +/- 12.7 umol/mol)", "assay_type": "organism-based", "settings": "in vivo, 168 h, 1200 µM"}, "Vitis vinifera [11]": {"test_system": "Vitis vinifera", "experiment": "Increase in […] CO2 level in Vitis vinifera cv. Pinot noir at 1.2 mM measured 7 days post compound application", "assay_type": "ADME, organism-based", "settings": "in vivo, 168 h, 1200 µM"}, "Vitis vinifera [12]": {"test_system": "Vitis vinifera", "experiment": "Inhibition of photosynthesis in Vitis vinifera cv. Pinot noir assessed as in vivo maximum rate of rubisco carboxylation at 1.2 mM measured 7 days post compound application (reference value: 42.8 +/- 3.2 umol/m2/s)", "assay_type": "organism-based", "settings": "168 h, 1200 µM"}, "[13]": {"experiment": "Inhibition of photosynthesis in Vitis vinifera cv. Pinot noir assessed as reduction in dark respiration at 1.2 mM measured 7 days post compound application", "assay_type": "organism-based", "settings": "in vivo"}, "Vitis vinifera [14]": {"test_system": "Vitis vinifera", "experiment": "Inhibition of photosynthesis in Vitis vinifera cv. Pinot noir assessed as dark respiration at 1.2 mM measured 7 days post compound application (reference value: 1.6 +/- 0.0 umol/m2/s)", "assay_type": "organism-based", "settings": "in vivo, 168 h, 1200 µM"}, "Vitis vinifera [15]": {"test_system": "Vitis vinifera", "experiment": "Inhibition of photosynthesis in Vitis vinifera cv. Pinot noir assessed as dark respiration at 6 mM measured 7 days post compound application (reference value: 1.6 +/- 0.0 umol/m2/s)", "assay_type": "organism-based", "settings": "in vivo, 168 h, 6000 µM"}, "Vitis vinifera [16]": {"test_system": "Vitis vinifera", "experiment": "Inhibition of photosynthesis in Vitis vinifera cv. Pinot noir assessed as intercellular CO2 concentration-saturated net CO2 assimilation rate at 6 mM measured 7 days post compound application (reference value: 11.3 +/- 0.8 umol/m2/s)", "assay_type": "organism-based", "settings": "in vivo, 168 h, 6000 µM"}, "Vitis vinifera [17]": {"test_system": "Vitis vinifera", "experiment": "Inhibition of photosynthesis in Vitis vinifera cv. Pinot noir assessed as reduction in net photosynthetic rate at 6 mM measured 1 day post compound application", "assay_type": "organism-based", "settings": "in vivo, 24 h, 6000 µM"}, "Vitis vinifera [18]": {"test_system": "Vitis vinifera", "experiment": "Inhibition of photosynthesis in Vitis vinifera cv. Pinot noir assessed as apparent quantum yield of CO2 fixation at 1.2 mM measured 7 days post compound application (reference value: 0.07 +/- 0.01 no unit) umol/m2/s)", "assay_type": "organism-based", "settings": "in vivo, 168 h, 1200 µM"}, "Vitis vinifera [19]": {"test_system": "Vitis vinifera", "experiment": "Inhibition of photosynthesis in Vitis vinifera cv. Pinot noir assessed as ratio of apparent quantum yield of photo system 2 to apparent quantum yield yield of CO2 fixation at 1.2 mM measured 7 days post compound application (reference value: 10 +/- 1.7 no unit)", "assay_type": "organism-based", "settings": "in vivo, 168 h, 1200 µM"}, "Vitis vinifera [20]": {"test_system": "Vitis vinifera", "experiment": "Effect on net photosynthetic rate in Vitis vinifera cv. Pinot noir at 1.2 to 30 mM measured 2 to 4 days post compound application", "assay_type": "ADME, organism-based", "settings": "in vivo, 30000 µM"}, "Vitis vinifera [21]": {"test_system": "Vitis vinifera", "experiment": "Effect on maximum efficiency of PSII photochemistry after dark-adaptation in Vitis vinifera cv. Pinot noir at 1.2 to 30 mM measured 7 days post compound application", "assay_type": "ADME, organism-based", "settings": "in vivo, 168 h, 30000 µM"}, "Vitis vinifera [22]": {"test_system": "Vitis vinifera", "experiment": "Increase in […] CO2 level in Vitis vinifera cv. Pinot noir at 30 mM measured 7 days post compound application", "assay_type": "ADME, organism-based", "settings": "in vivo, 168 h, 30000 µM"}, "[23]": {"experiment": "Inhibition of photosynthesis in Vitis vinifera cv. Pinot noir assessed as reduction in Hill reaction activity 6 mM measured 7 days post compound application relative to untreated control", "assay_type": "organism-based", "settings": "in vivo"}, "[24]": {"experiment": "Inhibition of photosynthesis in Vitis vinifera cv. Pinot noir assessed as reduction in apparent quantum yield of CO2 fixation at 1.2 to 30 mM measured 7 days post compound application", "assay_type": "organism-based", "settings": "in vivo"}, "Vitis vinifera [25]": {"test_system": "Vitis vinifera", "experiment": "Inhibition of photosynthesis in Vitis vinifera cv. Pinot noir assessed as PPFD-saturated net CO2 assimilation rate at 1.2 mM measured 7 days post compound application (reference value: 8.9 +/- 1.5 umol/m2/s)", "assay_type": "organism-based", "settings": "in vivo, 168 h, 1200 µM"}, "photosystem 2 [26]": {"test_system": "photosystem 2", "experiment": "Inhibition of photosynthesis in Vitis vinifera cv. Pinot noir assessed as reduction in relative quantum yield of photo system 2 at 1.2 mM measured 7 days post compound application relative to untreated control", "assay_type": "organism-based", "settings": "in vivo"}, "Vitis vinifera [27]": {"test_system": "Vitis vinifera", "experiment": "Inhibition of photosynthesis in Vitis vinifera cv. Pinot noir assessed as mitochondrial respiration in the light at 1.2 mM measured 7 days post compound application (reference value: 3.2 +/- 0.5 umol/m2/s)", "assay_type": "organism-based", "settings": "in vivo, 168 h, 1200 µM"}}, "data": [{"smiles": "N#Cc1c[nH]cc1-c1cccc2c1OC(F)(F)O2", "note": "[FLUDIOXONIL]", "values": [{"measurement": "Activity", "setting": "Vitis vinifera [1]", "value": 44.1, "unit": "micromol/m2/s"}, {"measurement": "Activity", "setting": "Vitis vinifera [2]", "value": 12.6, "unit": "micromol/m2/s"}, {"measurement": "Activity", "setting": "Vitis vinifera [3]", "value": 27.7, "unit": "umol/mol"}, {"measurement": "Activity", "setting": "Vitis vinifera [4]", "value": 3.6, "unit": "micromol/m2/s"}, {"measurement": "Activity", "setting": "Vitis vinifera [5]", "value": 19.8, "unit": "umol/mol"}, {"measurement": "Ratio", "setting": "Vitis vinifera [6]", "value": 16.3}, {"measurement": "Activity", "setting": "Vitis vinifera [7]", "value": "Non-toxic"}, {"measurement": "inhibition at 168 h, 6000 µM", "setting": "photosystem 2 [8]", "value": 7, "unit": "%"}, {"measurement": "inhibition at 168 h, 6000 µM", "setting": "[9]", "value": 65, "unit": "%"}, {"measurement": "Activity", "setting": "Vitis vinifera [10]", "value": 84.9, "unit": "umol/mol"}, {"measurement": "Activity", "setting": "Vitis vinifera [11]", "value": 13, "unit": "%"}, {"measurement": "Activity", "setting": "Vitis vinifera [12]", "value": 38, "unit": "micromol/m2/s"}, {"measurement": "inhibition at 168 h, 1200 µM", "setting": "[13]", "value": 30, "unit": "%"}, {"measurement": "Activity", "setting": "Vitis vinifera [14]", "value": 0.8, "unit": "micromol/m2/s"}, {"measurement": "Activity", "setting": "Vitis vinifera [15]", "value": 1.2, "unit": "micromol/m2/s"}, {"measurement": "Activity", "setting": "Vitis vinifera [16]", "value": 11.5, "unit": "micromol/m2/s"}, {"measurement": "Activity", "setting": "Vitis vinifera [17]", "value": "Toxic"}, {"measurement": "Activity", "setting": "Vitis vinifera [18]", "value": 0.01}, {"measurement": "Ratio", "setting": "Vitis vinifera [19]", "value": 17.4}, {"measurement": "Activity", "setting": "Vitis vinifera [20]", "value": "Non-toxic"}, {"measurement": "Activity", "setting": "Vitis vinifera [21]", "value": "Non-toxic"}, {"measurement": "Activity", "setting": "Vitis vinifera [22]", "value": 20, "unit": "%"}, {"measurement": "inhibition at 168 h, 6000 µM", "setting": "[23]", "value": 36, "unit": "%"}, {"measurement": "inhibition at 168 h, up to 30000 µM", "setting": "[24]", "value": 30, "unit": "%"}, {"measurement": "Activity", "setting": "Vitis vinifera [25]", "value": 7.7, "unit": "micromol/m2/s"}, {"measurement": "inhibition at 168 h, 1200 µM", "setting": "photosystem 2 [26]", "value": 10, "unit": "%"}, {"measurement": "Activity", "setting": "Vitis vinifera [27]", "value": 3.2, "unit": "micromol/m2/s"}]}]}
